Laboratory results taken from patent publication US4169096A, “Antibiotic compounds” (priority 1977, dated 1979).
≈ marks a conversion by molar mass, not a printed value. Where two headings read alike, the source gives them in different places.

Key:
[1] = test system: Neisseria meningitidis A21496; test: MIC, serial two-fold agar dilution, aerobic bacteria; assay type: cell-based; details: GC medium (Eiken)
Micrococcus flavus = test: as above; assay type: cell-based; details: Nutrient agar (Eiken), read-out: MIC
S. pyogenes A20201 [2] = test: Systemic infection with S. pyogenes in mice; assay type: in vivo; details: Streptococcus pyogenes, A20201, 120 h, just before challenge, determined after 5 days, read-out: PD50
[3] = test system: Streptococcus pyogenes A20201; test: MIC, serial two-fold agar dilution, aerobic bacteria; assay type: cell-based; details: GC medium (Eiken)
C. perfringens A9635 [4] = test: microbe, parasite or virus in culture; assay type: cell-based; details: Clostridium perfringens, A9635, read-out: MIC in GAM broth, inoculum size […] 10^6 cell/ml
Proteus morganii A9553 = test: MIC, serial two-fold agar dilution, aerobic bacteria; assay type: cell-based; details: Morganella morganii, Nutrient agar (Eiken)
[5] = test system: Staphylococcus aereus Smith; test: as above; assay type: cell-based; details: Nutrient agar (Eiken), read-out: MIC
[6] = test system: Neisseria meningitidis A20049; test: as above; assay type: cell-based
[7] = test system: Serratia marcescens A20019; test: as above; assay type: cell-based
[8] = test system: Streptococcus pyogenes A9604; test: as above; assay type: cell-based; details: GC medium (Eiken)
[9] = test system: Bacillus subtilis PCI-219; test: as above; assay type: cell-based
[10] = test system: Escherichia coli K-12 A9632; test: as above; details: K12A9632
[11] = test system: Staphylococcus aureus 209P; test: as above; assay type: cell-based; details: Nutrient agar (Eiken)
[12] = test system: Hemophilus influenzae A20188; test: as above; assay type: cell-based; details: Haemophilus influenzae, GC medium (Eiken)
B. fragilis A20928-1 [13] = test: Bactericidal activity (MIC & MBC); assay type: cell-based; details: Bacteroides fragilis, A209281, inoculum size 2.8 × 10^6 cell/ml; for MIC: broth
[14] = test system: Pseudomonas aeruginosa A9843; test: MIC, serial two-fold agar dilution, aerobic bacteria; assay type: cell-based; details: test medium not given
C. perfringens A9635 [15] = test: microbe, parasite or virus in culture; assay type: cell-based, Clostridium perfringens; details: for MIC in GAM agar: inoculum size 7 × 10^6 cell/ml
B. fragilis A20928-1 [16] = test: Inoculum size effect on MIC, GAM broth; assay type: cell-based; details: Bacteroides fragilis, A209281, read-out: MIC in GAM broth, inoculum size […] 10^6 cell/ml
S. pyogenes A20201 [17] = test: Bactericidal activity (MIC & MBC); assay type: cell-based; details: Streptococcus pyogenes
Sarcina lutea PCI-1001 = test: MIC, serial two-fold agar dilution, aerobic bacteria; assay type: cell-based; details: Micrococcus luteus, PCI1001; Nutrient agar (Eiken); read-out: MIC
bacterial RNA polymerase = details: Antimicrobial Agents and Chemotherapy 1976, page 618; cited from earlier work
C. perfringens A9635 [18] = test: animal or person; assay type: in vivo, mice; details: Clostridium perfringens, A9635, in Mus musculus, 120 h, read-out: PD50
[19] = test system: Escherichia coli Juhl A15119; test: MIC, serial two-fold agar dilution, aerobic bacteria; assay type: cell-based; details: JUHLA15119, Nutrient agar (Eiken), read-out: MIC
[20] = test system: Staphylococcus aureus #52-34; test: as above; assay type: cell-based; details: Nutrient agar (Eiken), read-out: MIC
Proteus mirabilis A9554 = test: as above; assay type: cell-based; details: Nutrient agar (Eiken)
C. perfringens A9635 [21] = test: microbe, parasite or virus in culture; assay type: cell-based; details: Clostridium perfringens, A9635, 18 h
[22] = test system: Klebsiella pneumoniae A9678; test: MIC, serial two-fold agar dilution, aerobic bacteria; assay type: cell-based
[23] = test system: Acidoaminococcus fermentans ATCC 25085; test: microbe, parasite or virus in culture
[24] = test system: Peptococcus aerogenes ATCC 14963; test: microbe, parasite or virus in culture; details: Peptoniphilus asaccharolyticus, ATCC14963
[25] = test system: Fusobacterium varium ATCC 8501; test: microbe, parasite or virus in culture; details: ATCC8501
[26] = test system: Sphaerophorus pseudonecrophorus A20013; test: microbe, parasite or virus in culture; details: Fusobacterium necrophorum
[27] = test system: C. perfringens or S. pyrogenes; assay type: in vivo, mice; details: mouse, in vivo
[28] = test system: Bacteroides fragilis A20932; test: microbe, parasite or virus in culture
[29] = test system: Veillonella parvula ATCC 17745; test: microbe, parasite or virus in culture; details: ATCC17745
B. fragilis A20926 = test: Localized infection with B. fragilis in mice; assay type: in vivo; details: for mean score: control 4.2; for sum of score: control 21; for infectivity level: control 100%
[30] = test system: Peptocuccus prevotii ATCC 9321; test: microbe, parasite or virus in culture
[31] = test system: Neisseria gonorrhoeae A20154; test: MIC, serial two-fold agar dilution, aerobic bacteria; assay type: cell-based; details: GC medium (Eiken)
[32] = test system: Neisseria gonorrhoeae A15112; test: as above; assay type: cell-based; details: GC medium (Eiken)
[33] = test system: Fusobacterium mortiferum ATCC 9817; test: microbe, parasite or virus in culture; details: ATCC9817
[34] = test system: Bacteroides fragilis A20929; test: microbe, parasite or virus in culture
[35] = test system: Bacteroides fragilis A20930; test: microbe, parasite or virus in culture
[36] = test system: Peptostreptococcus anaerobius B43; assay type: cell-based; details: GAM agar medium (Nissui)
[37] = test system: Clostridium caproicum IAM 19228; test: microbe, parasite or virus in culture; details: IAM19228
[38] = Nutrient agar (Eiken), read-out: MIC

CC(/C=C/C(=O)C1=C(O)CNC1=O)=C\C(C)C1OC2(C)OC(C(=O)C3OC32C)C1C (stereo not drawn) [Tirandamycin, reference compound]
MIC [1]: 0.8 µg/mL (≈ 1.92 µM) | MIC (Micrococcus flavus): 25 µg/mL (≈ 59.9 µM) | ED50 (S. pyogenes A20201 [2]; po, NA: no activity): 50 mg/kg | ED50 (S. pyogenes A20201 [2]; sc): 9.7 mg/kg | MIC [3]: 0.8 µg/mL (≈ 1.92 µM) | MIC (C. perfringens A9635 [4]): 12.5 µg/mL (≈ 29.9 µM) | MIC (Proteus morganii A9553): > 100 µg/mL | MIC [5]: > 100 µg/mL | MIC ([6]; GC medium (Eiken), read-out: MIC): 0.8 µg/mL (≈ 1.92 µM) | MIC [7, 38]: > 100 µg/mL | MIC [8]: 0.8 µg/mL (≈ 1.92 µM) | MIC ([9]; PCI219): 3.1 µg/mL (≈ 7.43 µM) | MIC [10]: > 100 µg/mL | MIC [11]: 100 µg/mL (≈ 240 µM) | MIC [12]: 0.8 µg/mL (≈ 1.92 µM) | MIC (B. fragilis A20928-1 [13]): 0.025 µg/mL (≈ 0.0599 µM) | MBC (B. fragilis A20928-1 [13]; growth of less than 100 colonies per plate, 18 hours at 37° C.): > 0.8 µg/mL | MIC [14]: > 100 µg/mL | MIC (C. perfringens A9635 [15]; Clostridium perfringens, A9635, read-out: MIC in GAM agar): 0.8 µg/mL (≈ 1.92 µM) | MIC in GAM agar (C. perfringens A9635 [15]): 0.8 µg/mL (≈ 1.92 µM) | MIC (B. fragilis A20928-1 [16]): 0.006 µg/mL (≈ 0.0144 µM) | MBC (S. pyogenes A20201 [17]; A20201, 18 h): > 12.5 µg/mL | MIC (Sarcina lutea PCI-1001): 50 µg/mL (≈ 120 µM) | inhibition of bacterial RNA polymerase (bacterial RNA polymerase): inhibitor of bacterial RNA polymerase in a manner similar to streptolydigin | ED50 (C. perfringens A9635 [18]; po): 60 mg/kg | ED50 (C. perfringens A9635 [18]; sc): 17 mg/kg | MIC [19]: > 100 µg/mL | MIC [20]: 50 µg/mL (≈ 120 µM) | MIC (Proteus mirabilis A9554): > 100 µg/mL | MBC (C. perfringens A9635 [21]): 3.1 µg/mL (≈ 7.43 µM) | MIC [22, 38]: > 100 µg/mL

CCC[C@@H]1C[C@@H](C(=O)N[C@@H]([C@H]2O[C@H](SC)[C@H](O)[C@@H](O)[C@H]2O)[C@H](C)Cl)N(C)C1 [Clindamycin]
MIC [23]: 0.05 µg/mL (≈ 0.118 µM) | MIC [24]: 0.2 µg/mL (≈ 0.471 µM) | MIC [25]: 0.05 µg/mL (≈ 0.118 µM) | MIC [26]: 0.05 µg/mL (≈ 0.118 µM) | ED50 (S. pyogenes A20201 [2]; po, NA: no activity): 2.1 mg/kg | ED50 (S. pyogenes A20201 [2]; sc): 0.3 mg/kg | MIC (Proteus morganii A9553): 100 µg/mL (≈ 235 µM) | MIC [5]: 0.1 µg/mL (≈ 0.235 µM) | MIC [6]: 0.05 µg/mL (≈ 0.118 µM) | comparative in vivo activity [27]: the most active | MIC [7]: 50 µg/mL (≈ 118 µM) | MIC [28]: 0.05 µg/mL (≈ 0.118 µM) | MIC [29]: 0.05 µg/mL (≈ 0.118 µM) | MIC ([9]; PCI219, Nutrient agar (Eiken), read-out: MIC): 0.8 µg/mL (≈ 1.88 µM) | comparative in vivo activity (B. fragilis A20926; B. fragilis localized infection): more active than Bu-2313B or Flagyl | mean score (B. fragilis A20926; oral, 6.3 × 5 mg/kg): 2.6 | sum of score (B. fragilis A20926; oral, 6.3 × 5 mg/kg): 13 | infectivity level (B. fragilis A20926; oral, 6.3 × 5 mg/kg): 61.9% | mean score (B. fragilis A20926; oral, 25 × 5 mg/kg): 1.8 | sum of score (B. fragilis A20926; oral, 25 × 5 mg/kg): 9 | infectivity level (B. fragilis A20926; oral, 25 × 5 mg/kg): 42.9% | sum of score (B. fragilis A20926; oral, 100 × 5 mg/kg): 2 | infectivity level (B. fragilis A20926; oral, 100 × 5 mg/kg): 9.5% | mean score (B. fragilis A20926; oral, […] 5 mg/kg): 4.0 | sum of score (B. fragilis A20926; oral, […] 5 mg/kg): 20 | infectivity level (B. fragilis A20926; oral, […] 5 mg/kg): 95.2% | mean score (B. fragilis A20926; subcutaneous, 0.8 × 5 mg/kg): 4.0 | sum of score (B. fragilis A20926; subcutaneous, 0.8 × 5 mg/kg): 20 | infectivity level (B. fragilis A20926; subcutaneous, 0.8 × 5 mg/kg): 95.2% | mean score (B. fragilis A20926; subcutaneous, 3.1 × 5 mg/kg): 2.0 | sum of score (B. fragilis A20926; subcutaneous, 3.1 × 5 mg/kg): 10 | infectivity level (B. fragilis A20926; subcutaneous, 3.1 × 5 mg/kg): 47.6% | mean score (B. fragilis A20926; subcutaneous, 50 × 5 mg/kg): 0.8 | sum of score (B. fragilis A20926; subcutaneous, 50 × 5 mg/kg): 4 | infectivity level (B. fragilis A20926; subcutaneous, 50 × 5 mg/kg): 19.0% | mean score (B. fragilis A20926; subcutaneous, […] 5 mg/kg): 1.4 | sum of score (B. fragilis A20926; subcutaneous, […] 5 mg/kg): 7 | infectivity level (B. fragilis A20926; subcutaneous, […] 5 mg/kg): 33.3% | MIC [11]: 0.1 µg/mL (≈ 0.235 µM) | MIC [12]: 0.8 µg/mL (≈ 1.88 µM) | MIC (B. fragilis A20928-1 [13]): 0.05 µg/mL (≈ 0.118 µM) | MIC [14]: > 100 µg/mL | MIC [30]: 0.1 µg/mL (≈ 0.235 µM) | MIC in GAM agar (C. perfringens A9635 [15]): 0.0125 µg/mL (≈ 0.0294 µM) | MIC [31]: 0.2 µg/mL (≈ 0.471 µM) | MIC (S. pyogenes A20201 [17]; A20201, inoculum size 6 × 10^5 cell/ml, broth): 0.05 µg/mL (≈ 0.118 µM) | MBC (S. pyogenes A20201 [17]; A20201, inoculum size 6 × 10^5 cell/ml, growth of less than 100 colonies per plate, 18 hours at 37° C., read-out: MBC): 6.3 µg/mL (≈ 14.8 µM) | ED50 (C. perfringens A9635 [18]; po): 0.22 mg/kg | ED50 (C. perfringens A9635 [18]; sc): 0.08 mg/kg | MIC [32]: 0.2 µg/mL (≈ 0.471 µM) | MIC [20]: 0.1 µg/mL (≈ 0.235 µM) | MIC (Proteus mirabilis A9554): 100 µg/mL (≈ 235 µM) | MIC [33]: 0.05 µg/mL (≈ 0.118 µM) | MIC [34]: 0.05 µg/mL (≈ 0.118 µM) | MBC (C. perfringens A9635 [21]): 0.05 µg/mL (≈ 0.118 µM) | MIC [35]: 0.05 µg/mL (≈ 0.118 µM) | MIC [22]: 100 µg/mL (≈ 235 µM) | MIC [36]: 0.8 µg/mL (≈ 1.88 µM) | MIC [37]: 0.1 µg/mL (≈ 0.235 µM)
